According to US20210379062A1, “The use of a H3R inverse agonist for the treatment of excessive daytime sleepiness associated with parkinson's disease (PD)” (Novartis AG, priority 2018, published 2021):
“And” between values parts separate entries of the source, which are not always exact repeats. Equal values may be shown once.

Key:
[1] = biological target: T1, Human histamine H3 receptor (Homo sapiens, UniProt Q9Y5N1); experiment: Radioligand binding assay with [3H]-N-α-methylhistamine
T1 construct: purchased PerkinElmer
T1 sequence (Q9Y5N1 whole entry): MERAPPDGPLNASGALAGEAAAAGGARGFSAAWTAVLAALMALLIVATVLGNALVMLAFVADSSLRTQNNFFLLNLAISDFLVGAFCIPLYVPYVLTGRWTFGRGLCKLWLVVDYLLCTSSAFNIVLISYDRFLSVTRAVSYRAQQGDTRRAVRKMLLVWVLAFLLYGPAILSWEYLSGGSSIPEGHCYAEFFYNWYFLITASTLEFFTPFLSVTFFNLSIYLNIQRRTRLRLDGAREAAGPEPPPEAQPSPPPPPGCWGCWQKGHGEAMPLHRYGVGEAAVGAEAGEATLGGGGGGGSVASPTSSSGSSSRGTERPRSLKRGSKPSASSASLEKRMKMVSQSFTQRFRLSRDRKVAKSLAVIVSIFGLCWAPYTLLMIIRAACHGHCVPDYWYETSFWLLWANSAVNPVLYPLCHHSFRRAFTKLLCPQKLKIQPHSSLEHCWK
Protocol: Human histamine H3 receptor membrane (PerkinElmer) were incubated with 1.0 nM [^3H]—N-α-methylhistamine (PerkinElmer) in the presence or absence of increasing concentrations of ligands for H3 receptor competition binding. The binding incubations were in a final volume of 0.1 ml buffer (50 mMTris pH 7.5, 5 mM MgCl2) at 28° C. for 120 minutes. Thioperamide (10 μM) was used to define non-specific binding.
All binding reactions were terminated by transferring 70 μl binding reaction from the reaction plate into filtration plates (Zeba 96-well Spin Desalting Plates, Thermo Scientific), followed by centrifugation at 1000 g for 2 min to collect the protein with bound radioligand. 200 μl of microscint-40 were added to determine the bound radiolabel by a Wallac Microbeta Trilux 2450 (Perkin Elmer). For all radioligand competition binding assays, IC50 values and Hill slopes were determined by GraphPad Prism: log(inhibitor) vs. response with variable slope. Ki was calculated using the equation in Biochem. Pharmacol. 1973. 22 (23), 3099-3108, from Cheng and Prusoff: Ki=IC50/{1+([radioligand]/Kd)}.

[2] = biological target: H3 receptors in the brain (Homo sapiens, UniProt Q9Y5N1); experiment: PET brain H3 receptor occupancy study with [11C]MK-8278 in healthy volunteers; format: in vivo
H3 receptors in the brain, sequence (Q9Y5N1 whole entry): as above
Protocol: An open-label, adaptive design study was performed in healthy volunteers to characterize regional brain H3 receptor occupancy following single dose of Compound (I) by using positron emission tomography (PET) with the radioligand [^11C]MK-8278 (Van Laere, K. J. et al, Journal of Nuclear Medicine, 2014, 55: 65-72). The primary objective of this study was to evaluate the plasma concentration of Compound (I) leading to 50% occupancy of H3 receptors in the brain (EC50). A total of 6 subjects were enrolled into the study and were scanned in three cohorts of two subjects each. Prior to dosing with Compound (I), each subject underwent a baseline PET scan to assess binding of [^11C]MK-8278 to H3R in the absence of Compound (I). Subjects subsequently received single oral doses of Compound (I) and then underwent two post-dose PET scans. Subjects of cohort 1 received a single oral dose of 300 mg of Compound (I), corresponding to the single dose maximum tolerated dose (MTD) determined from the Phase I study after single oral dose of Compound (I). These subjects underwent two post-dose PET scans, at 3 hours and 27 hours after dosing. The doses and scan timings for the subsequent cohorts were selected based on interim data analyses following the completion of the preceding cohort(s). Subjects of cohorts 2 and 3 received a single oral dose of 10 mg and 0.3 mg, respectively. Compound (I) was administered as capsules in cohorts 1 and 2, whereas cohort 3 received Compound (I) as an oral solution. […] The first post-dose PET scan for cohorts 2 and 3 was acquired at 3 hours and the second one at 27 hours and 8 hours after dosing, respectively.
The binding was consistent with both the known distribution of H3 receptors and previous [^11C]MK-8278 data (Van Laere, K. J. et al, Journal of Nuclear Medicine, 2014, 55: 65-72). The kinetics of [^11C]MK-8278 in brain were analyzed using different modelling approaches, such as the one- and two-tissue compartment (1TC, 2TC) models, multilinear analysis (MA1; Ichise, M. et al., Journal of Cerebral Blood Flow and Metabolism, 2002, 22: 1271-1281) and the Logan graphical method (Logan, J. et al., Journal of Cerebral Blood Flow and Metabolism, 1990, 10(5): 740-747). All methods produced similar results, but the 2TC model was the most appropriate to derive regional VT values. Tissue time-activity curves (TACs) were generated for all scans and were characterized by a peak at around 5-15 minutes post-injection, followed by washout. After administration of Compound (I), regional binding of [^11C]MK-8278 was reduced compared to baseline scans, indicating engagement of Compound (I) with the target. The occupancy plot method proposed by Lassen (Lassen, N. A. et al., Journal of Cerebral Blood Flow and Metabolism, 1995, 15 (1): 152-165; Cunningham, V. J. et al., Journal of Cerebral Blood Flow and Metabolism, 2010, 30 (1): 46-50) was applied to estimate whole-brain H3 receptor occupancy for each post-dose PET scan. This method also provided consistent estimates of the non-displaceable component (VND).
The relationship between plasma concentration of Compound (I) and H3 receptor occupancy was characterized plotting occupancy estimates against corresponding plasma concentration data (measured at the start of each post-dose PET scan). The RO versus concentration was analyzed using the Emax model:
Where RO=Receptor occupancy; Emax=maximum receptor occupancy; Cp=plasma concentration of Compound (I) during PET scan; EC50=plasma concentration leading to 50% of maximum change in RO.

Structure (SMILES): Cn1nc(N2CCC(OC(=O)N3CCN(C4CCC4)CC3)CC2)ccc1=O [Compound (I), 1-(1-methyl-6-oxo-1,6-dihydropyridazin-3-yl)piperidin-4-yl 4-cyclobutylpiperazine-1-carboxylate]
- affinity fold higher compared to bavisant ([1]; human H3 receptors): 12 fold
- affinity fold higher compared to pitolisant ([1]; human H3 receptors): 18 fold
- Ki ([1]; human recombinant H3R, 1.0 nM [3H]-N-α-methylhistamine, Cheng-Prusoff): 8.5 nM
- Emax (maximum receptor occupancy) ([2]; Emax model of PK-RO relationship): 96.1% and 96.16%
- Receptor occupancy (RO) ([2]; first cohort, single oral dose 300 mg, 3 hours post-dose, both subjects): higher than 95%
- Receptor occupancy (RO) ([2]; first cohort, single oral dose 300 mg, 27 hours post-dose, both subjects): higher than 95%
- EC50 ([2]; read-out: EC50 (plasma concentration leading to 50% occupancy of H3 receptors), Emax model of PK-RO relationship, plasma concentration): 0.772 nM
- Receptor occupancy (RO) ([2]; second cohort, single oral dose 10 mg, 3 hours post dose): similarly high
- Receptor occupancy (RO) ([2]; second cohort, single oral dose 10 mg, 27 hours post dose): decreased
- Receptor occupancy (RO) ([2]; third cohort, single oral dose 0.3 mg, 3 h and 8 h post dose): generally lower than in the other cohorts
